Measured values: patent publication US9828375B2, “4-position substituted pyrazolopyrimidine derivative, and use thereof in drug preparation” (Guangxi Wuzhou Pharmaceuticals (Group) Co., Ltd., priority 2012, dated 2017)

Target: T1, FLT3 (Homo sapiens, UniProt P36888)
T1 sequence (P36888 27-993): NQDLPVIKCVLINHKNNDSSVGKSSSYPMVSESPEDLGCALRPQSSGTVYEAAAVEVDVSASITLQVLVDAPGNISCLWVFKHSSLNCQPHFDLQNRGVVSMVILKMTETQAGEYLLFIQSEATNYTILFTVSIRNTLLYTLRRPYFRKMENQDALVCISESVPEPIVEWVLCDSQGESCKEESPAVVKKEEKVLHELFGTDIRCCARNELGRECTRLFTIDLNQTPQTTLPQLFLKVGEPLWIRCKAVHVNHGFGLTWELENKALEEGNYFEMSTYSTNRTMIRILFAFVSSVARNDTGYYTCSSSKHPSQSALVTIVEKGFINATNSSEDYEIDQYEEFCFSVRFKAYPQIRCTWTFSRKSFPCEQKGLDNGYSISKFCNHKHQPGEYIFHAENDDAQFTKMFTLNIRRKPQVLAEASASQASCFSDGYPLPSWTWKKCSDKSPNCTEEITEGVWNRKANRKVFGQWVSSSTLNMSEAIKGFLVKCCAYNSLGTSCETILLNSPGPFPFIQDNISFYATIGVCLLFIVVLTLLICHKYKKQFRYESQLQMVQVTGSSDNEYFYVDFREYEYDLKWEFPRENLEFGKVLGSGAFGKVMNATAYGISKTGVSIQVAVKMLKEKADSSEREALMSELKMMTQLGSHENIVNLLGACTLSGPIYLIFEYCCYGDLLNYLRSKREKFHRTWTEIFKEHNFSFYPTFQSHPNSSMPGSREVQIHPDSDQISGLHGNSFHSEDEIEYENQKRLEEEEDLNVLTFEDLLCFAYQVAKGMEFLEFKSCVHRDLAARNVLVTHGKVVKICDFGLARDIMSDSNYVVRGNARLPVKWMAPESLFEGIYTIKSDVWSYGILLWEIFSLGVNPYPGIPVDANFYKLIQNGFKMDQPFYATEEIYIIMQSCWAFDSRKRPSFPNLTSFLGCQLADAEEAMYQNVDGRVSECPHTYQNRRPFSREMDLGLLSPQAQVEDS
Assay: Kinase inhibition activity test, isotope labeling (γ-33P-ATP): FLT3
Format: biochemical
Details: for IC50: ATP 200 μM, read-out: FLT3 IC50 value (inhibitory activity value); for Activity inhibition rate Flt3 (h) / inhibition at 10 µM: test compound at a concentration of 10 μM; for inhibition at 10 µM: read-out: Activity inhibition rate Flt3 (h)
Description: The purpose of this experiment was to test the inhibitory activity of the compound of the invention for in vitro kinase with the isotope labeling method (the γ phosphate group on ATP was labeled). In this experiment, the in vitro activity inhibition of such kinases as FLT3, VEGFR2, FLT1, FLT4, RET, c-RAF, B-RAF, c-KIT, PDGFα, PDGFβ, FGFR2, FGFR1, EphA2, EphB2, SRC, ABL, ALK and Met was tested respectively. Staurosporine was reference molecule (or referred to as positive control). The kinase inhibition activity of the test compound was expressed by half-inhibitory concentration (IC50) or the kinase activity inhibition rate of the test compound at a concentration of 10 μM. The IC50 value could be obtained by calculating the kinase activity inhibition rate of the test compound at different concentrations.
20 mM 3-(N-morpholinyl)propanesulfonic acid (MOPS); 1 mM ethylenediaminetetraacetic acid (EDTA), 0.01% Brij 35 (Brij-35), 5% glycerol, 0.1% mercaptoethanol, 1 mg/mL bovine serum albumin (BSA), 10 mM manganous dichloride solution (MnCl2), 0.1 mg/mL glutamic acid/tyrosine (4:1) polypeptide (poly(Glu, Tyr)4:1), 50 μM EAIYAAPFAKKK (substrate of FLT3), 0.33 mg/mL myelin basic protein (substrate of VEGFR2), 250 μM KKKSPGEYVNIEFG (substrate of FLT1(h)), 500 μM GGEEEEYFELVKKKK (substrate of FLT4(h)), 250 μM KKKSPGEYVNIEFG (substrate of RET), 0.66 mg/mL myelin basic protein (substrate of C-RAF), 250 μM GGMEDIYFEFMGGKKK (substrate of c-Kit), 250 μM GGMEDIYFEFMGGKKK (substrate of PDGFα), 250 μM KKKSPGEYVNIEFG (substrate of FGFR1), […] GGEEEEYFELVKKKK (substrate of SRC), 50 μM EAIYAAPFAKKK (substrate of ABL), 250 μM KKKSPGEYVNIEFG (substrate of ALK), 250 μM KKKSPGEYVNIEFG (substrate of Met(h)), 10 mM magnesium acetate and γ-^33 P-ATP solution, stop buffer (3% phosphate buffer), washing buffer (75 mM phosphate solution), methanol, Filtermat A membrane, FLT3, VEGFR2, FLT3, VEGFR2, FLT1, FLT4, RET, c-RAF, B-RAF, c-KIT, PDGFRα, PDGFRβ, FGFR2, FGFR1, EphA2, EphB2, SRC, ABL, ALK, Met and other kinases, and the test compounds.
Buffers (8 mM MOPS with pH value of 7.0, 0.2 mM EDTA and 10 mM MnCl2), (5-10 mU) kinases to be tested (FLT3, VEGFR2, FLT1, FLT4, RET, c-RAF, B-RAF, c-KIT, PDGFRα, PDGFRβ, FGFR2, FGFR1, EphA2, EphB2, SRC, ABL, ALK and Met), substrates of kinases to be tested (refer to experimental materials), 10 mM magnesium acetate and γ-^33 P-ATP solution, and test compounds at different concentrations were added to a reaction tube orderly. […] Reaction was terminated with 5 μL 3% phosphate buffer finally, and 10 μL reaction solution was titrated to the Filtermat A membrane; solution was washed for 3 times with 75 mM phosphate solution with each time lasting 5 minutes, and then washed once with methanol. Finally, the Filtermat A membrane was dried, and scintillation counting was performed on the membrane, with scintillation count reflecting the phosphorylation degree of the substrates, so that the activity inhibition of kinase could be characterized.

IC50 | Activity inhibition rate Flt3 (h) | inhibition at 10 µM | Activity inhibition rate Flt3 (h) (10 µM) | Compound
5 nM | 100% | – | – | CC(C)(C)c1cc(NC(=O)Nc2ccc(Oc3ncnc4[nH]ncc34)c(F)c2)no1 [4a-31]
– | – | 30% | – | O=C(Nc1cccc(Nc2ncnc3[nH]ncc23)c1)Nc1ccc(F)c(Cl)c1 [4b-1]
39 nM | 100% | – | – | O=C(Nc1ccc(Oc2ncnc3[nH]ncc23)cc1)Nc1ccc(Cl)c(C(F)(F)F)c1 [4a-2]
89 nM | 100% | – | – | O=C(Nc1ccccc1)Nc1ccc(Oc2ncnc3[nH]ncc23)cc1 [4a-15, 1-(4-((1H-pyrazolopyrimidine-4-yl)oxy)phenyl)-3-phenylurea]
– | – | 81% | – | COc1ccc(NC(=O)Nc2ccc(NC(=O)N3C=NC=C4NNC=C43)cc2)cc1 [4b-6, 1-(4-(1H-pyrazolopyrimidine-4-amido)phenyl)-3-(4-methoxyphenyl)urea]
17 nM | 100% | – | – | CC(C)(C)c1cc(NC(=O)Nc2ccc(Oc3ncnc4[nH]ncc34)cc2)n(-c2ccccc2)n1 [4a-24]
16 nM | 100% | – | – | CC(C)(C)c1cc(NC(=O)Nc2ccc(Oc3ncnc4[nH]ncc34)cc2)on1 [4a-25]
8 nM | – | 100% | – | CC(C)(C)c1cc(NC(=O)Nc2ccc(Oc3ncnc4[nH]ncc34)cc2)no1 [4a-26]
36 nM | 100% | – | – | CC(C)c1cccc(NC(=O)Nc2ccc(Oc3ncnc4[nH]ncc34)c(F)c2)c1 [4a-7, 1-(4-((1H-pyrazolopyrimidine-4-yl)oxy)-3-fluorophenyl)-3-(3-isopropylphenyl)urea]
25 nM | 100% | – | – | O=C(Nc1ccc(Oc2ncnc3[nH]ncc23)c(F)c1)Nc1ccc(Cl)c(C(F)(F)F)c1 [4a-10, 1-(4-((1H-pyrazolopyrimidine-4-yl)oxy)-3-fluorophenyl)-3-(4-chloro-3-(trifluoromethyl)phenyl)urea]
– | – | > 90% | – | O=C(Nc1ccc(Sc2ncnc3[nH]ncc23)cc1)Nc1ccc(C(F)(F)F)cc1 [4c-1]
24 nM | 100% | – | – | O=C(Nc1ccc(Oc2ncnc3[nH]ncc23)cc1)Nc1ccc(C(F)(F)F)cc1Cl [4a-13]
– | – | > 90% | – | CC(C)n1ncc2c(Oc3ccc(NC(=O)Nc4cc(C(C)(C)C)on4)cc3)ncnc21 [5a-4, 1-(5-tert-butylisoxazol-3-yl)-3-(4-(1-isopropyl-(1H-pyrazolopyrimidine-4-yl)oxy)phenyl)urea]
– | >90% | – | – | CC(C)(C)c1cc(NC(=O)Nc2ccc(Sc3ncnc4[nH]ncc34)cc2)no1 [4c-3, 1-(4-(1H-pyrazolopyrimidine-4-sulfydryl)phenyl)-3-(5-tert-butylisoxazol-3-yl)urea]
– | – | – | 0% | C[C@@H](NC(=O)Nc1ccc(Nc2ncnc3[nH]ncc23)cc1)c1ccccc1 [4b-2, (R)-1-(4-(1H-pyrazolopyrimidine-4-amido)phenyl)-3-(1-phenethyl)urea]
– | – | 91% | – | Cc1cc(C)c(NC(=O)Nc2ccc(NC(=O)N3C=NC=C4NNC=C43)cc2)c(C)c1 [4b-7, 1-(4-(1H-pyrazolopyrimidine-4-amido)phenyl)-3-(2,4,6-trimethylphenyl)urea]
– | – | 76% | – | O=C(Nc1ccc(Oc2ncnc3[nH]ncc23)cc1)Nc1ccc(N2CCOCC2)cc1 [4a-16, 1-(4-((1H-pyrazolopyrimidine-4-yl)oxy)phenyl)-3-(4-morpholinylphenyl)urea]
18 nM | 100% | – | – | O=C(Nc1ccc(C(F)(F)F)cc1)Nc1ccc(Oc2ncnc3[nH]ncc23)c(F)c1 [4a-9, 1-(4-((1H-pyrazolopyrimidine-4-yl)oxy)-3-fluorophenyl)-3-(4-(trifluoromethyl)phenyl)urea]
– | – | – | 59% | C[C@H](NC(=O)Nc1ccc(Nc2ncnc3[nH]ncc23)cc1)c1ccccc1 [4b-4]
– | 81% | – | – | C[C@H](NC(=O)Nc1ccc(Oc2ncnc3[nH]ncc23)cc1)c1ccccc1 [4a-18, (S)-1-(4-((1H-pyrazolopyrimidine-4-yl)oxy)phenyl)-3-(1-phenethyl)urea]
– | – | 95% | – | O=C(Nc1ccc(NC(=O)N2C=NC=C3NNC=C32)cc1)Nc1ccc(Cl)c(C(F)(F)F)c1 [4b-5, 1-(4-(1H-pyrazolopyrimidine-4-amido)phenyl)-3-(4-chloro-3-(trifluoromethyl)phenyl)urea]
– | – | 100% | – | O=C(Nc1ccc(Oc2ncnc3[nH]ncc23)cc1)Nc1cc(C(F)(F)F)on1 [4a-28]
27 nM | – | 100% | – | O=C(Nc1ccc(Oc2ncnc3[nH]ncc23)cc1)Nc1ccc(C(F)(F)F)cc1 [4a-1]
61 nM | 100% | – | – | O=C(Nc1ccc(Oc2ncnc3[nH]ncc23)cc1)Nc1cc(C(F)(F)F)cc(C(F)(F)F)c1 [4a-12, 1-(4-((1H-pyrazolopyrimidine-4-yl)oxy)phenyl)-3-(3,5-bis(trifluoromethyl)phenyl)urea]
– | >90% | – | – | O=C(Nc1ccc(Sc2ncnc3[nH]ncc23)cc1)Nc1cccc(C(F)(F)F)c1 [4c-2]
– | 73% | – | – | C[C@@H](NC(=O)Nc1ccc(Oc2ncnc3[nH]ncc23)cc1)c1ccccc1 [4a-19, (R)-1-(4-((1H-pyrazolopyrimidine-4-yl)oxy)phenyl)-3-(1-phenethyl)urea]
– | – | 72% | – | COc1cccc(NC(=O)Nc2ccc(Nc3ncnc4[nH]ncc34)cc2)c1 [4b-3]
– | 66% | – | – | 1-(4-((1H-pyrazolopyrimidine-4-yl)oxy)phenyl)-3-(methylcyclohexyl)urea [4a-20]
38 nM | 100% | – | – | 1-(4-((1H-pyrazolopyrimidine-4-yl)oxy)-3-fluorophenyl)-3-(3-trifluoromethoxy)phenyl)urea [4a-8]

Compound | IC50 | Activity inhibition rate Flt3 (h) | inhibition at 10 µM | Activity inhibition rate Flt3 (h) (10 µM)
O=C(Nc1ccc(Oc2ncnc3[nH]ncc23)cc1)Nc1cccc(C(F)(F)F)c1 [4a-6] | 9 nM | – | 100% | –
